Data: paper PMC8850458, “The AUTOTAC chemical biology platform for targeted protein degradation via the autophagy-lysosome system” (Nature Communications, 2022)
Where “and” joins values, the source holds several entries; their conditions need not be identical. Equal entries are not always repeated. Each block holds one compound with its values, some of them ahead of it.

Experiments:
wild-type desmin = target: T1, wild-type desmin (Homo sapiens, UniProt P17661); assay: WB degradation of wild-type desmin in HeLa cells; format: cell-based; conditions: exogenously expressed
T1 construct: expressed in transfected cells; host or cells: HeLa, transient
Description: (§1) Adherent cells were washed with phosphate-buffered saline (PBS) and cell pellets were lysed in SDS-based sample buffer (277.8 mM Tris-HCI, pH 6.8, 4.4% LDS, 44.4% (v/v) glycerol) containing beta-mercaptoethanol. Alternatively, cell pellets or protein supernatants were lysed in 5X Laemmli sample buffer. Whole-cell lysates were separated using SDS-PAGE, and transferred onto polyvinyllidene difluoride membranes at 100 V for 2 h at 4 °C. The membrane was incubated with a blocking solution consisting 4% skim milk in PBS solution for 30 min at room temperature and incubated with primary antibodies overnight, followed by incubation with host-specific HRP-conjugated secondary antibodies (1:10000 dilution). For signal detection, the membrane was developed with a mixture of ECL solution (Thermo Fisher Scientific) using X-ray films. Densitometry of developed bands was measured and analyzed with ImageJ (NIH, Bethesda).
(§2) Supplementary Fig. 5. AUTOTACs selectively target pathological aggregation-prone proteins for autophagic degradation. (a) WB in HEK293T cells treated with PBA-1105 (1 μM) and MG132 (1 μM, 24 h) at the indicated time points. (b) ICC of HeLa cells treated with the indicated compounds (1 μM, 24 h). Scale bar, 10 μm. (c) WB in HEK293T cells treated with PBA-1105 (500 nM, 24 h) and MG132 (1 μM, 24 h) under siRNA-mediated knockdown of p62 or ATG7 (20 nM, 48 h). (d) ICC in HeLa cells transiently expressing WIPI2-GFP and treated with Anle138b-F105 (1 μM, 24 h). Scale bar, 10 μm. (e) ICC in HeLa cells treated with […]
(§3) nM, 24 h). (g, h) WB in HeLa cells transiently expressing wild type or mutant (L385P) desmin-flag with LacZ-myc and treated with PBA-1105, PBA-1105b or Anle138b-F105 at the […]

tauP301L = tauP301L (Homo sapiens, UniProt P10636, P618L); assay: WB degradation of tauP301L in SH-SY5Y-tauP301L cells; format: cell-based; conditions: SH-SY5Y-tauP301L cells
Description: as §1

mutant desminL385P = target: T2, mutant desminL385P (Homo sapiens, UniProt P17661, L385P); assay: WB degradation of mutant desmin in HeLa cells; format: cell-based; conditions: exogenously expressed
T2 construct: expressed in transfected cells; host or cells: HeLa, transient
Description: as §1, §2, §3

Ub^+ and p62^+ puncta = assay: ICC of Ub (FK2) and p62 puncta in HeLa cells; format: cell-based; conditions: 1 μM 24 h, autophagy inhibition (HCQ)
Description: Fig. 4 Targeted autophagic delivery and degradation of misfolded protein cargoes using AUTOTACs with aggregate-binding warhead. a A model illustrating the mode of action of aggregate-targeting AUTOTAC. b Chemical structures of PBA-1105, PBA-1106, Anle138b-F105 and PBA-1105b. c In vitro p62 oligomerization assay in HEK293T cells incubated with the indicated compounds in (b). d WB in HEK293T cells treated with MG132 (1 μM, 24 h), HCQ (10 μM, 24 h), PBA-1105, YTK-1105, and PBA (1 μM, 24 h). e Identical to (d), but with Anle-F105. f ICC of HeLa cells treated with HCQ (10 μM, 24 h), MG132 (2 μM, 18 h) or both in the presence of PBA-1106, YOK-1106 or PBA (1 μM, 24 h). Scale bar, 10 μm. g Quantification of (f) (n = 3, 50 cells). h ICC of HeLa cells treated with Anle138b-F105 (1 μM, 24 h). Scale bar, 10 μm. i Quantification of (h) (n = 3, 50 cells). When indicated, n = 3 biologically independent experiments each counting 50 cells. Data are presented as mean values ± SD where relevant. P-values (from a two-sided unpaired t test): ***P < 7.66E−05. Source data are provided with this paper.
(§4) Cells were cultured on coverslips coated with poly-L-lysine (Sigma) to observe cellular localization of proteins. Using 4% paraformaldehyde in PBS (pH 7.4), the cells were fixed for 15 min at room temperature and washed three times for 5 min with PBS. After fixing, the cells were permeabilized with 0.5% Triton X-100 in PBS solution for 15 min and washed three times with PBS for 5 min. The cells were blocked containing 2% BSA in PBS solution for 1 h at room temperature. Subsequently, the cells were incubated with primary antibody diluted in 2% BSA/PBS solution overnight at 4 °C, followed by washing the cells three times for 10 min with PBS and incubated with Alexa Fluor-conjugated secondary antibody diluted in 2% BSA/PBS for 30 min at room temperature. Using a DAPI-containing mounting medium (Vector Laboratories), the coverslips were mounted on glass slides. Confocal images were taken by laser scanning confocal microscope 510 Meta (Zeiss) and analyzed by Zeiss LSM Image Browser (ver. 4.2.0.121). […] Quantification results are shown as mean ± S.D. or S.E.M. of three independent experiments

p62 [1] = target: T3, p62 (Homo sapiens, UniProt Q13501); assay: In vitro p62 oligomerization assay; format: biochemical; conditions: HEK293T lysate
T3 construct: expressed in transfected cells; host or cells: HEK293T, transient; whole lysate used
Description: HEK293T cells were transiently transfected with a plasmid encoding p62-myc/his fusion proteins. Cells were resuspended in lysis buffer [50 mM HEPES (pH 7.4), 0.15 M KCl, 0.1% Nonidet P-40), 10% glycerol, containing a mixture of protease inhibitors and phosphatase inhibitor (Abcam)]. To lyse the cells, 10 cycles of freezing and thawing was done, followed by centrifugation at 13,000 × g for 20 min at 4 °C. Using a BCA assay, the protein concentration of the supernatant was measured. A total of 1 μg of protein was incubated with 1 mM of p62-ZZ ligands in the presence of 100 μM bestatin (Enzo) at room temperature for 2 h. After incubation, each sample was mixed with non-reducing 4X LDS sample buffer, heated at 95 °C for 10 min, and resolved using 4–20% gradient SDS-PAGE (Bio-Rad). To monitor the conversion of p62 monomers into oligomers or aggregates, IB assay was performed using anti-myc antibody.

p62 [2] = target: T3, p62; assay: In vitro pulldown assay with biotinylated p62 ligands; format: binding; conditions: biotinylated ligand, HEK293T extracts
Description: A set of synthetic 12-mer peptides corresponding to the N-terminal sequences of the V-BiP (V[19]-[…]-biotin) and V-RGS4 (V^2-[…]-biotin) was C-terminally biotin-conjugated. Alternatively, biotinylated versions of YOK-1304, YT-8-8, YTK-1105, YOK-2204, and PBA were synthesized. To cross-link the above peptides with resin beads, biotin-conjugated peptides, and small molecule were mixed with high-capacity streptavidin agarose resin (Thermo Fisher Scientific) at a ratio of 0.5 mg of peptide per 1 mL of settled resin and incubated on a rotator at 4 °C overnight. After washing five times with PBS, the peptide/small molecule-bead conjugates were diluted with PBS at a 1:1 ratio. To prepare protein extracts, cells were collected by centrifugation and lysed by freezing and thawing at least 10 times in hypotonic buffer [10 mM KCl, 1.5 mM MgCl2, and 10 mM HEPES (pH 7.9)] with a protease inhibitor mix (Sigma). After centrifugation at 15,000 rpm 4 °C for 15 min, proteins were quantified using a BCA protein assay kit (Thermo Fisher Scientific). Total protein (200 μg) diluted in 300 μL of binding buffer [0.05% Tween-20, 10% glycerol, 0.2 M KCl, and 20 mM HEPES (pH 7.9)] were mixed with 50 μL of peptide/small molecule-bead resin and incubated at 4 °C for 2 h on a rotator. The protein-bound beads were collected by centrifugation at 2400 × g for 3 min and washed five times with binding buffer. The beads were resuspended in 25 μL of SDS sample buffer, heated at 95 °C for 5 min, and subjected to SDS/PAGE and immunoblotting.

[3] = system: p62 and LC3 punctate structures; assay: ICC of p62 and LC3 puncta formation and co-localization in HeLa cells; format: cell-based; conditions: 2.5 μM, 24 h
Description: as §4

[4] = target: T4, methionine aminopeptidase 2 (MetAP2) (Homo sapiens, UniProt P50579); assay: Western blot degradation of MetAP2; format: cell-based; conditions: 293T, 24 h
T4 construct: Targeted autophagic degradation of endogenous oncoproteins by AUTOTAC; endogenous in cells; host or cells: HEK293 / HEK293T, U87-MG
Description: as §1

[5] = system: autophagic turnover of p62 and LC3; assay: Autophagic flux assay in HeLa cells with or without HCQ; format: cell-based; conditions: 2.5 μM, 24 h, with or without HCQ 10 µM 24 h
Description: Fig. 1 Nt-Arg-mimicking p62-ZZ ligands activate p62-dependent selective macroautophagy. a A model illustrating the mode of action of autophagy-targeting ligands. b Chemical structures of autophagy-targeting ligands. c In vitro pulldown assay in HEK293T cells of the 12-mer V-BiP peptide or autophagy-targeting ligands. d In vitro p62 oligomerization assay in HEK293T cells incubated with the p62-ZZ ligands in (b). e ICC of HeLa cells treated with p62-ZZ ligands in (b) (2.5 μM, 24 h). Scale bar, 10 μm. f, g Quantification of (e) for puncta formation and co-localization, respectively (n = 3 biologically independent experiments each counting 50 cells). h A schematic/formulae for autophagy flux index. i Autophagic flux assay in HeLa cells treated with YOK-1304 or YTK-105 (2.5 μM, 24 h) in the presence or absence of HCQ (10 µM, 24 h). Data are presented as mean values ± SD where relevant. P-values (from a two-sided unpaired t test): ***P < 0.000956 (for p62 punctate formation), ***P < 0.000539 (for LC3 punctate formation), ***P < 0.000925 (for p62-LC3 co-localization). Source data are provided with this paper. TEXT PRINTED IN THE PICTURE: (i) YOK 1304: Normalized p62 A.F. index: 2.8; Normalized LC3 II/I A.F. index: 4.2 | (i) YTK 105: Normalized p62 A.F. index: 4.6; Normalized LC3 II/I A.F. index: 11.2
as §1

[6] = system: p62-positive and WIPI2-positive punctate structures; assay: ICC of WIPI2-p62 co-localization in HeLa cells; format: cell-based
Description: as §4
Supplementary Fig. 2. Characterization of p62-ZZ ligands (a, c, e) 3-D modeling of p62 […]
μM, 6 h). (m) Quantification of l for co-localization (n=3, 50 cells). Scale bar, 10 µm. (n) […]

[7] = system: U87-MG glioblastoma cells; assay: Wound healing assay in U87-MG cells; format: cell-based; design: wound area, single experiment / wound area, Average: unit not given here; conditions: Fig. S4j
Description: To analyze cell migration in two dimensions, U-87 MG or ACHN cells were plated to a monolayer. Cells were scratched with a sterile 10 μl pipette tip and the debris was removed using medium. Cells were treated with compounds and incubated for different time to monitor cell behavior. Photographs were obtained using a microscope at different time point.

[8] = HeLa expressing WIPI2-GFP, 2.5 μM, 6 h
[9] = HeLa, endogenous WIPI2, 2.5 μM, 24 h

Chain of tauP301L (P10636 1-441 isoform P10636-8 P301L): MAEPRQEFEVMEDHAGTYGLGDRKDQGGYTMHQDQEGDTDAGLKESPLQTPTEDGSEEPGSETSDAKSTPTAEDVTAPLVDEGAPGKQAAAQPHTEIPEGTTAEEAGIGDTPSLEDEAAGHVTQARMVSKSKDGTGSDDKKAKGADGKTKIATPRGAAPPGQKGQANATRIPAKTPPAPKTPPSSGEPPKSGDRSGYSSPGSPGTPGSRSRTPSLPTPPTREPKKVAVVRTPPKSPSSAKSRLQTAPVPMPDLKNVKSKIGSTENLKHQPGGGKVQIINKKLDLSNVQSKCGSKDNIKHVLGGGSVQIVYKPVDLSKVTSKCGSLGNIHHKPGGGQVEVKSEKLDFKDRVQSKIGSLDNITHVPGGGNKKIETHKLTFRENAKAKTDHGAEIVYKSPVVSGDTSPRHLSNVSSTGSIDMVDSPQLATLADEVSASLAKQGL
T4 sequence (P50579 whole entry): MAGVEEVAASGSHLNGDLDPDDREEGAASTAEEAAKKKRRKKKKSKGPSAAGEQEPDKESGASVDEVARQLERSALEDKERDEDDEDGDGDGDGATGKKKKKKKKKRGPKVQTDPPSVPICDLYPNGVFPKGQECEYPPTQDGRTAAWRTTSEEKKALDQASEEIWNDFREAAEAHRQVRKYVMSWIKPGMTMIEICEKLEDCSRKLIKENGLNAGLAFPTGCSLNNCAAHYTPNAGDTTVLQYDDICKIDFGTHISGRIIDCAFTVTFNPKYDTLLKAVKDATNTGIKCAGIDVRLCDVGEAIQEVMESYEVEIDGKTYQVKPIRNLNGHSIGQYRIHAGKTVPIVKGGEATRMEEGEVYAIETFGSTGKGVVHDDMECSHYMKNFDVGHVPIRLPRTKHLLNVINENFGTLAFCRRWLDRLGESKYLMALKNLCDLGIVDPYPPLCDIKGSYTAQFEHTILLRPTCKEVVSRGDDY
T3 sequence (Q13501 whole entry): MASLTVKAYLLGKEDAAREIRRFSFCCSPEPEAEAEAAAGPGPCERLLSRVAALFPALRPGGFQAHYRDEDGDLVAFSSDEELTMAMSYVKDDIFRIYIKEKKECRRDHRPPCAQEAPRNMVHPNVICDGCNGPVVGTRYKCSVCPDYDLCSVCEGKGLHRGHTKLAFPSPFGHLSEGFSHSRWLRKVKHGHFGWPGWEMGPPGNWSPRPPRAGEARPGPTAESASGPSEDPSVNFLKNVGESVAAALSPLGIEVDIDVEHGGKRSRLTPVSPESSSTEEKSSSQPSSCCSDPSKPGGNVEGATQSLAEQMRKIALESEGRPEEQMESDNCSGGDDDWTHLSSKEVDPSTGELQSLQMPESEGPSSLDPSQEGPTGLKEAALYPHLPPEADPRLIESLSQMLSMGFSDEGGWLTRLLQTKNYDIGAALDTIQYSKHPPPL
T1 sequence (P17661 whole entry): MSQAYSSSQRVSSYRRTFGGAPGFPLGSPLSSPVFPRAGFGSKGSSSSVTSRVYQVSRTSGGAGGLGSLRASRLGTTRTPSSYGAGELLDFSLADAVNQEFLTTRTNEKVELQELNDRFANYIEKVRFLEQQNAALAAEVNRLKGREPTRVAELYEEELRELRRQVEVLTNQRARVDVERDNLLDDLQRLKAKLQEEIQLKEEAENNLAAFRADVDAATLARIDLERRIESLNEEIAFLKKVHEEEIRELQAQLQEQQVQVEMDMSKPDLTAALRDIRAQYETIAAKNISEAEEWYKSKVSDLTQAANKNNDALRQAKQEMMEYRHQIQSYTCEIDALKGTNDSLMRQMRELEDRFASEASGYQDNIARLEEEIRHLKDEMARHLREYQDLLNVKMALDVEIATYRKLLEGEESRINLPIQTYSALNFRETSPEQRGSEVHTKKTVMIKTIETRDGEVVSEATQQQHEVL
T2 sequence (P17661 whole entry L385P): as the sequence (P17661 whole entry) above, with L385P counted along it

degradation of wild-type desmin (wild-type desmin): not wild-type desmin
degradation of mutant desminL385P (mutant desminL385P): induced the degradation
SMILES: O=C(CCCc1ccccc1)NCCOCCOCCOCCOCCOCCOCCOCCNCc1ccc(OCc2ccccc2)c(OCc2ccccc2)c1 [PBA-1105b]
degradation of tauP301L (tauP301L): at a similar efficiency as the original PBA-1105

DC50 (tauP301L): 1 to 10 nM
Dmax,24 hr of tauP301L degradation (tauP301L): 100 nM
p62 self-oligomerization (p62 [1]): triggered its self-oligomerization
SMILES: O=C(CCCc1ccccc1)NCCOCCOCCOCCNC[C@@H](O)COc1ccc(OCc2ccccc2)c(OCc2ccccc2)c1 [PBA-1106]
p62 puncta structures (per cell) (Ub^+ and p62^+ puncta): 14 ± 4.2

SMILES: OCCNCc1cccc(OCc2ccccc2)c1 [YTK-105]
binding of p62 in pulldown (p62 [2]): bound
LC3 puncta formation, AVG of cells of 50 [3]: 42.3333
LC3 puncta formation, percentage AVG [3]: 84.6667%
p62-LC3 colocalization, AVG of cells of 50 [3]: 45
p62-LC3 colocalization, percentage AVG [3]: 90%
p62 puncta formation, AVG of cells of 50 [3]: 43.6667
p62 puncta formation, percentage AVG [3]: 87.3333%
LC3 puncta formation, cells of 50 cells counted ([3]; single experiments): 38 and 42 and 47
p62-LC3 colocalization, cells of 50 cells counted ([3]; single experiments): 46 and 43
p62 puncta formation, cells of 50 cells counted ([3]; single experiments): 43 and 41 and 47
MetAP2 normalized to control, AVG % ([4]; 2.5uM): 101.594%
MetAP2 normalized to control, AVG % ([4]; 10uM): 142.103%
Normalized LC3 II/I A.F. index [5]: 11.2
Normalized p62 A.F. index [5]: 4.6
WIPI2-GFP-p62 colocalization, AVG of cells of 50 [6, 8]: 25
WIPI2-GFP-p62 colocalization, percentage AVG [6, 8]: 50%
WIPI2-GFP-p62 colocalization, cells of 50 cells counted ([6]; HeLa expressing WIPI2-GFP, 2.5 μM, 6 h, single experiments): 31 and 18 and 26
WIPI2-p62 colocalization, AVG of cells of 50 [6, 9]: 40.6667
WIPI2-p62 colocalization, percentage AVG [6, 9]: 81.3333%
WIPI2-p62 colocalization, cells of 50 cells counted ([6]; HeLa, endogenous WIPI2, 2.5 μM, 24 h, single experiments): 48 and 33 and 41
wound area, single experiment ([7]; 0h): 1132236 and 1199923 and 1182736
wound area, Average % ([7]; 0h (reference = 100)): 100%
wound area, Average ([7]; 0h, con 1278325): 1171632
wound area, single experiment ([7]; 4h): 859025 and 791115 and 860952
wound area, Average ([7]; 4h, con 815372): 837031
wound area, Average % ([7]; 4h, relative to 0h, con 63.7844): 71.4415%
wound area, single experiment ([7]; 12h): 450234 and 520420 and 504520
wound area, Average ([7]; 12h, con 627015): 491725
wound area, Average % ([7]; 12h, relative to 0h, con 49.0497): 41.9692%
wound area, single experiment ([7]; 24h): 288632 and 435340 and 335340
wound area, Average ([7]; 24h, con 144265): 353104
wound area, Average % ([7]; 24h, relative to 0h, con 11.2855): 30.1378%
